Experimental data from PubChem BioAssay (NCI).
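Values below derive from 48-hour exposures of cells grown in 96-well plates, with endpoints linearly interpolated between the two concentrations bracketing the appropriate inhibition level. At the TGI there is no net growth.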

Tests used:
Assay in all cases: DTP human tumour cell line panel, 48 h
KM12 colon = tested on: KM12 colon
DMS 273 small cell lung = tested on: DMS 273 small cell lung
UACC-62 melanoma = tested on: UACC-62 melanoma
M14 melanoma = tested on: M14 melanoma
UACC-257 melanoma = tested on: UACC-257 melanoma
SF-539 CNS = tested on: SF-539 CNS
DMS 114 small cell lung = tested on: DMS 114 small cell lung
KM20L2 colon = tested on: KM20L2 colon
NCI-H522 lung = tested on: NCI-H522 lung
EKVX NSCLC = tested on: EKVX NSCLC
SNB-19 CNS = tested on: SNB-19 CNS
786-0 renal = tested on: 786-0 renal
OVCAR-3 ovarian = tested on: OVCAR-3 ovarian
IGROV1 ovarian = tested on: IGROV1 ovarian
SN12C renal = tested on: SN12C renal
SK-MEL-28 melanoma = tested on: SK-MEL-28 melanoma
NCI-H23 lung = tested on: NCI-H23 lung
NCI-H460 lung = tested on: NCI-H460 lung
HOP-62 NSCLC = tested on: HOP-62 NSCLC
HOP-92 NSCLC = tested on: HOP-92 NSCLC
DLD-1 colon = tested on: DLD-1 colon
ACHN renal = tested on: ACHN renal
SNB-78 CNS = tested on: SNB-78 CNS
SK-OV-3 ovarian = tested on: SK-OV-3 ovarian
SNB-75 CNS = tested on: SNB-75 CNS
CAKI-1 renal = tested on: CAKI-1 renal
A498 renal = tested on: A498 renal
RPMI-8226 leukemia = tested on: RPMI-8226 leukemia
K-562 leukemia = tested on: K-562 leukemia
SK-MEL-2 melanoma = tested on: SK-MEL-2 melanoma
M19-MEL melanoma = tested on: M19-MEL melanoma
SF-295 CNS = tested on: SF-295 CNS
LOX IMVI melanoma = tested on: LOX IMVI melanoma
TK-10 renal = tested on: TK-10 renal
RXF-631 renal = tested on: RXF-631 renal
SW-620 colon = tested on: SW-620 colon
HCT-116 colon = tested on: HCT-116 colon
MALME-3M melanoma = tested on: MALME-3M melanoma
LXFL 529 NSCLC = tested on: LXFL 529 NSCLC
RXF 393 renal = tested on: RXF 393 renal
A549 NSCLC = tested on: A549 NSCLC
SK-MEL-5 melanoma = tested on: SK-MEL-5 melanoma
OVCAR-4 ovarian = tested on: OVCAR-4 ovarian
HCT-15 colon = tested on: HCT-15 colon
UO-31 renal = tested on: UO-31 renal
HCC-2998 colon = tested on: HCC-2998 colon
XF 498 CNS = tested on: XF 498 CNS
U251 CNS = tested on: U251 CNS
OVCAR-8 ovarian = tested on: OVCAR-8 ovarian
HOP-18 NSCLC = tested on: HOP-18 NSCLC
NCI-H226 lung = tested on: NCI-H226 lung
HT29 colon = tested on: HT29 colon
COLO 205 colon = tested on: COLO 205 colon
MOLT-4 leukemia = tested on: MOLT-4 leukemia
HL-60(TB) leukemia = tested on: HL-60(TB) leukemia
OVCAR-5 ovarian = tested on: OVCAR-5 ovarian
CCRF-CEM leukemia = tested on: CCRF-CEM leukemia
SF-268 CNS = tested on: SF-268 CNS

Structure (SMILES): C[C@]12CC[C@H](OC3CCCCO3)CC1=CC[C@@H]1C2CC[C@]2(C)/C(=N/OCCC#N)CCC12 (some centres undefined)
- TGI (KM12 colon): > 100 µM
- TGI (DMS 273 small cell lung): > 100 µM
- TGI (UACC-62 melanoma): > 100 µM
- TGI (M14 melanoma): > 100 µM
- TGI (UACC-257 melanoma): > 100 µM
- TGI (SF-539 CNS): > 100 µM
- TGI (DMS 114 small cell lung): > 100 µM
- TGI (KM20L2 colon): > 100 µM
- TGI (NCI-H522 lung): > 100 µM
- TGI (EKVX NSCLC): > 100 µM
- TGI (SNB-19 CNS): > 100 µM
- TGI (786-0 renal): 72.2 µM
- TGI (OVCAR-3 ovarian): > 100 µM
- TGI (IGROV1 ovarian): > 100 µM
- TGI (SN12C renal): > 100 µM
- TGI (SK-MEL-28 melanoma): > 100 µM
- TGI (NCI-H23 lung): 95.1 µM
- TGI (NCI-H460 lung): > 100 µM
- TGI (HOP-62 NSCLC): > 100 µM
- TGI (HOP-92 NSCLC): 57.6 µM
- TGI (DLD-1 colon): > 100 µM
- TGI (ACHN renal): > 100 µM
- TGI (SNB-78 CNS): 72.1 µM
- TGI (SK-OV-3 ovarian): > 100 µM
- TGI (SNB-75 CNS): 58.4 µM
- TGI (CAKI-1 renal): > 100 µM
- TGI (A498 renal): > 100 µM
- TGI (RPMI-8226 leukemia): > 100 µM
- TGI (K-562 leukemia): > 100 µM
- TGI (SK-MEL-2 melanoma): > 100 µM
- TGI (M19-MEL melanoma): > 100 µM
- TGI (SF-295 CNS): > 100 µM
- TGI (LOX IMVI melanoma): > 100 µM
- TGI (TK-10 renal): 72.9 µM
- TGI (RXF-631 renal): > 100 µM
- TGI (SW-620 colon): > 100 µM
- TGI (HCT-116 colon): > 100 µM
- TGI (MALME-3M melanoma): > 100 µM
- TGI (LXFL 529 NSCLC): > 100 µM
- TGI (RXF 393 renal): 40.2 µM
- TGI (A549 NSCLC): > 100 µM
- TGI (SK-MEL-5 melanoma): > 100 µM
- TGI (OVCAR-4 ovarian): 66.5 µM
- TGI (HCT-15 colon): > 100 µM
- TGI (UO-31 renal): > 100 µM
- TGI (HCC-2998 colon): > 100 µM
- TGI (XF 498 CNS): 20.5 µM
- TGI (U251 CNS): > 100 µM
- TGI (OVCAR-8 ovarian): > 100 µM
- TGI (HOP-18 NSCLC): > 100 µM

Structure (SMILES): NC(N)=NNC(=O)CCn1[nH]c(=O)c(Cl)c(Cl)c1=O
- TGI (KM12 colon): > 100 µM
- TGI (DMS 273 small cell lung): > 100 µM
- TGI (UACC-62 melanoma): > 100 µM
- TGI (NCI-H226 lung): > 100 µM
- TGI (M14 melanoma): > 100 µM
- TGI (UACC-257 melanoma): > 100 µM
- TGI (SF-539 CNS): > 100 µM
- TGI (DMS 114 small cell lung): > 100 µM
- TGI (KM20L2 colon): > 100 µM
- TGI (NCI-H522 lung): > 100 µM
- TGI (EKVX NSCLC): > 100 µM
- TGI (SNB-19 CNS): > 100 µM
- TGI (HT29 colon): > 100 µM
- TGI (786-0 renal): > 100 µM
- TGI (OVCAR-3 ovarian): > 100 µM
- TGI (IGROV1 ovarian): > 100 µM
- TGI (SN12C renal): > 100 µM
- TGI (SK-MEL-28 melanoma): > 100 µM
- TGI (NCI-H23 lung): > 100 µM
- TGI (NCI-H460 lung): > 100 µM
- TGI (COLO 205 colon): > 100 µM
- TGI (HOP-62 NSCLC): > 100 µM
- TGI (DLD-1 colon): > 100 µM
- TGI (ACHN renal): > 100 µM
- TGI (SK-OV-3 ovarian): > 100 µM
- TGI (SNB-75 CNS): > 100 µM
- TGI (CAKI-1 renal): > 100 µM
- TGI (MOLT-4 leukemia): > 100 µM
- TGI (RPMI-8226 leukemia): > 100 µM
- TGI (K-562 leukemia): > 100 µM
- TGI (SK-MEL-2 melanoma): > 100 µM
- TGI (M19-MEL melanoma): > 100 µM
- TGI (SF-295 CNS): > 100 µM
- TGI (LOX IMVI melanoma): > 100 µM
- TGI (HL-60(TB) leukemia): > 100 µM
- TGI (TK-10 renal): > 100 µM
- TGI (RXF-631 renal): > 100 µM
- TGI (SW-620 colon): > 100 µM
- TGI (OVCAR-5 ovarian): > 100 µM
- TGI (MALME-3M melanoma): > 100 µM
- TGI (CCRF-CEM leukemia): > 100 µM
- TGI (LXFL 529 NSCLC): > 100 µM
- TGI (RXF 393 renal): > 100 µM
- TGI (A549 NSCLC): > 100 µM
- TGI (SK-MEL-5 melanoma): > 100 µM
- TGI (OVCAR-4 ovarian): > 100 µM
- TGI (HCT-15 colon): > 100 µM
- TGI (UO-31 renal): > 100 µM
- TGI (HCC-2998 colon): > 100 µM
- TGI (XF 498 CNS): > 100 µM
- TGI (SF-268 CNS): > 100 µM
- TGI (U251 CNS): > 100 µM
- TGI (OVCAR-8 ovarian): > 100 µM
- TGI (HOP-18 NSCLC): > 100 µM

Structure (SMILES): COC(=O)C1=C(C(=O)OC)C2(C3C(SC)=CC(C)(C)CC3S1)N(Cc1ccccc1)CCN2Cc1ccccc1 (centres undefined)
- TGI (KM12 colon): > 100 µM
- TGI (DMS 273 small cell lung): > 100 µM
- TGI (UACC-62 melanoma): > 100 µM
- TGI (NCI-H226 lung): > 100 µM
- TGI (M14 melanoma): > 100 µM
- TGI (UACC-257 melanoma): > 100 µM
- TGI (SF-539 CNS): > 100 µM
- TGI (DMS 114 small cell lung): > 100 µM
- TGI (KM20L2 colon): > 100 µM
- TGI (NCI-H522 lung): > 100 µM
- TGI (EKVX NSCLC): > 100 µM
- TGI (SNB-19 CNS): > 100 µM
- TGI (HT29 colon): > 100 µM
- TGI (786-0 renal): > 100 µM
- TGI (OVCAR-3 ovarian): > 100 µM
- TGI (IGROV1 ovarian): > 100 µM
- TGI (SN12C renal): > 100 µM
- TGI (SK-MEL-28 melanoma): > 100 µM
- TGI (NCI-H23 lung): > 100 µM
- TGI (NCI-H460 lung): > 100 µM
- TGI (COLO 205 colon): > 100 µM
- TGI (HOP-62 NSCLC): > 100 µM
- TGI (HOP-92 NSCLC): 16.1 µM
- TGI (DLD-1 colon): > 100 µM
- TGI (ACHN renal): > 100 µM
- TGI (SNB-78 CNS): > 100 µM
- TGI (SK-OV-3 ovarian): > 100 µM
- TGI (SNB-75 CNS): > 100 µM
- TGI (CAKI-1 renal): > 100 µM
- TGI (MOLT-4 leukemia): > 100 µM
- TGI (RPMI-8226 leukemia): > 100 µM
- TGI (K-562 leukemia): > 100 µM
- TGI (SK-MEL-2 melanoma): > 100 µM
- TGI (M19-MEL melanoma): > 100 µM
- TGI (SF-295 CNS): > 100 µM
- TGI (LOX IMVI melanoma): > 100 µM
- TGI (TK-10 renal): > 100 µM
- TGI (RXF-631 renal): > 100 µM
- TGI (SW-620 colon): > 100 µM
- TGI (OVCAR-5 ovarian): > 100 µM
- TGI (HCT-116 colon): > 100 µM
- TGI (MALME-3M melanoma): > 100 µM
- TGI (CCRF-CEM leukemia): > 100 µM
- TGI (LXFL 529 NSCLC): > 100 µM
- TGI (RXF 393 renal): > 100 µM
- TGI (A549 NSCLC): > 100 µM
- TGI (SK-MEL-5 melanoma): > 100 µM
- TGI (OVCAR-4 ovarian): > 100 µM
- TGI (HCT-15 colon): > 100 µM
- TGI (UO-31 renal): > 100 µM
- TGI (XF 498 CNS): > 100 µM
- TGI (SF-268 CNS): > 100 µM
- TGI (U251 CNS): > 100 µM
- TGI (OVCAR-8 ovarian): > 100 µM
- TGI (HOP-18 NSCLC): > 100 µM
